The values below come from ChEMBL document CHEMBL1201862, “PubChem BioAssay data set” (2004).

Common to all, as to assay: NCI anticancer screen, dose series, 48 h
For assay [1], the system named is DLD-1.
Assay [2] relates to HOP-18.
Assay [3] deals with LXFL 529.
Assay [4] relates to DMS-114.
Assay [5] concerns KM-20L2.
For assay [6], the system named is SNB-78.
Assay [7] deals with XF498.
The subject of assay [8] is DMS-273.
The subject of assay [9] is RXF 631.

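1) Cells in 96-well plates. 2) Compound, 48 h, 5 concentrations. 3) Linear interpolation between surrounding doses. 4) Unreached endpoint = highest concentration. GI50 = concentration required for 50% inhibition of growth.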 The source made the active and inactive calls. Cut-off read from the data, not from the text of the source: active = GI50 up to about 1.1 µM and inactive = higher. Bounds are passed on as bounds.

Consider `COc1nc(NC2OC(COC(C)=O)C(OC(C)=O)C(OC(C)=O)C2OC(C)=O)c(-c2csc(N)n2)c(=O)n1C` (configuration not stated), for which the GI50 was 52.7 µM (inactive) in assay [1]; 39.4 µM (inactive) in assay [2]; 70 µM (inactive) in [3]; 53.5 µM (inactive) in [4]; > 100 µM (inactive) in assay [5]; 62.2 µM (inactive) in assay [6].
Take `ClC(/N=N/c1ccccc1)=N/Nc1ccccc1`: the GI50 in assay [2] is 20.8 µM (inactive); in [3] it was 28.5 µM (inactive); in [5], 51.1 µM (inactive); in assay [6], > 100 µM (inactive); in [7], 40.4 µM (inactive); in assay [8] it was 26.6 µM (inactive). The GI50 in [9] was > 100 µM (inactive).
`CC1COS(=O)O1` (configuration not stated): the GI50 in assay [1], in [2], in [4], in [5], in assay [6] and in [7] was > 100 µM (inactive) throughout. Further, the GI50 in assay [8] is > 100 µM (inactive).
As for `COc1ccc([C@H]2CC(=O)NCCCCN2)cc1`, the GI50 in assay [1], in assay [2], in assay [3], in [4], in assay [5] and in [6] was > 100 µM (inactive) throughout. Besides, the GI50 in assay [7] and in assay [8] was > 100 µM (inactive) each time.
As to `CCN(CC)CCn1c2ccccc2c(=O)c2c(OC)ccc(OC)c21`, the GI50 in assay [3] is 68.5 µM (inactive); in [5], 45.2 µM (inactive); in assay [6], 40.6 µM (inactive); in assay [7] it was 87.5 µM (inactive); in assay [8], 37.3 µM (inactive).
For `CCC(CC)n1c(C)nc2c1C(=O)c1ccccc1C2=O`, the GI50 in assay [1] was 24.3 µM (inactive); in [3], 19.5 µM (inactive); in [5] it was 39.4 µM (inactive); in assay [6], 49.7 µM (inactive); in [8] it was 23.1 µM (inactive).
Consider `COc1cc2c(cc1OC)C(=O)N1CCCC1C(=O)S2` (configuration not stated), for which the GI50 in assay [1] is > 100 µM (inactive); in assay [2], 25.4 µM (inactive); in assay [3] it was > 100 µM (inactive); in [4], > 100 µM (inactive); in assay [5], > 100 µM (inactive); in assay [6] it was > 100 µM (inactive). Also, the results for the GI50 in assay [7] and in assay [8] were 92.7 µM (inactive) and > 100 µM (inactive), respectively.
With `Cc1ccc(NC(=O)CCC(CC(=O)C(C)(C)C)=NNC(=O)C(=O)NN)cc1C`, the GI50 in assay [1] was > 100 µM (inactive); in assay [2] it was > 100 µM (inactive); in assay [3] it was > 100 µM (inactive); in assay [5], > 100 µM (inactive); in assay [7] it was 64.4 µM (inactive); in [8] it was > 100 µM (inactive).
With `CCCCCCCCCCCCn1[nH]c(C)c(C(=S)SCCCCCCCC)c1=O`, the GI50 in assay [1] was 19.6 µM (inactive); in [2], 61.5 µM (inactive); in assay [3], 53.2 µM (inactive); in assay [4], 26.7 µM (inactive); in assay [5], 36.8 µM (inactive); in assay [6] it was > 100 µM (inactive). The GI50 in assay [7] was > 100 µM (inactive); in assay [8], 99.5 µM (inactive); in assay [9], 75.7 µM (inactive).
Consider `C=COC(=O)N[C@H]1CCc2cc(OC)c(OC)c(OC)c2-c2ccc(SC)c(=O)cc21`, for which the GI50 in [2] was > 100 µM (inactive); in assay [3], < 0.01 µM (active); in assay [4], < 0.01 µM (active); in assay [5], < 0.01 µM (active); in [6], < 0.01 µM (active); in assay [7], < 0.01 µM (active). The GI50 in [8] is < 0.01 µM (active).
For `Cc1ccc(/N=N/c2ccc(N(CCC#N)CCC#N)cc2C)c(Br)c1`, the GI50 was 13.7 µM (inactive) in assay [1]; 15.6 µM (inactive) in assay [2]; 20 µM (inactive) in assay [3]; 12.8 µM (inactive) in assay [4]; 24.7 µM (inactive) in assay [6]; 9.08 µM (inactive) in [7]. For the same molecule, the GI50 in [8] is 10 µM (inactive); in assay [9], 4.35 µM (inactive).
With `O=C1c2ccccc2C(=O)c2nc3ccc(Cl)cc3cc21`, the GI50 in assay [1], in [3], in assay [4], in [5], in assay [6] and in [7] was > 100 µM (inactive) each time. Besides, the GI50 in assay [8] and in [9] was > 100 µM (inactive) throughout.
In the case of `COc1ccc(/C=C/C(=O)c2sc(N)nc2C)cc1`, the GI50 in [1], in assay [2], in [4], in assay [5], in [6] and in assay [8] was > 100 µM (inactive) each time.
`CN(C(=O)C12C3C4C1C1C2C3C41C(N)=O)C(C)(C)C` (configuration not stated): the GI50 in assay [3], in [4], in assay [6], in [7] and in assay [8] was > 100 µM (inactive) throughout.
Take `CC(=O)OCC1OC(n2c(=O)[nH]c(=O)c3nn[nH]c32)C(OC(C)=O)C(OC(C)=O)C1OC(C)=O` (configuration not stated): the GI50 is > 100 µM (inactive) in [1]; 76.7 µM (inactive) in assay [2]; > 100 µM (inactive) in assay [3]; > 100 µM (inactive) in assay [4]; > 100 µM (inactive) in assay [5]; > 100 µM (inactive) in [7]. In addition, in [8], the GI50 is > 100 µM (inactive).
As to `O=C(N/C(=C\c1ccc(Oc2ccc(Cl)c(Cl)c2)cc1)c1nc2ccccc2[nH]1)c1ccccc1`, the GI50 is 17.7 µM (inactive) in [1]; 12.5 µM (inactive) in [3]; 17.7 µM (inactive) in [5]; 20.4 µM (inactive) in assay [6]; 16.8 µM (inactive) in assay [7]; 21.2 µM (inactive) in assay [8].
For `CC(C)CC(NC(=O)OC(C)(C)C)C(=O)Nc1ccc(Nc2nc(F)nc(-c3c4ccccc4cn3C)n2)cc1` (configuration not stated), the GI50 in [1] was > 37.2 µM (inactive); in assay [2] it was > 100 µM (inactive); in [3], 77.3 µM (inactive); in assay [4], 21.8 µM (inactive); in [5] it was 37.6 µM (inactive); in [6], 14.7 µM (inactive). In addition, the GI50 in assay [7] was > 85.1 µM (inactive); in assay [8], 42.6 µM (inactive).
With `COC(=O)C1=NC(=S)NC(c2ccccc2)C1c1nc2ccccc2o1` (configuration not stated), the GI50 in [1], in [2], in assay [3], in [4], in [5] and in assay [6] was > 50 µM (inactive) each time. Moreover, in assay [7], the GI50 was > 50 µM (inactive).
Consider `O=C(/C=C/c1ccc(Cl)c(Cl)c1)c1cccc2ccccc12`, for which the GI50 is 2.49 µM (inactive) in [1]; 17.3 µM (inactive) in assay [2]; 2.28 µM (inactive) in assay [3]; 2.3 µM (inactive) in [4]; 5.22 µM (inactive) in [5]; 11.4 µM (inactive) in assay [6]. The GI50 was 4.05 µM (inactive) in assay [8] and 17 µM (inactive) in assay [9].
For the molecule `Cc1csc(CCC(N)C(=O)O)n1` (configuration not stated), the GI50 in assay [1], in assay [2], in assay [3], in [6] and in assay [8] was > 100 µM (inactive) throughout.
As for `CC(=O)OCC1=CC2CCC3C(C)(CCC[C@]3(C)COC(C)=O)C23CC[C@H]1C3` (some centres not stated), the GI50 in assay [1] was 51.6 µM (inactive); in assay [2] it was > 100 µM (inactive); in [3], 29.2 µM (inactive); in assay [4] it was 12.9 µM (inactive); in assay [5], 41 µM (inactive); in assay [7] it was 33.8 µM (inactive). The figures for the GI50 in assay [8] and in assay [9] were 29.6 µM (inactive) and > 100 µM (inactive), respectively.
With `NC(=O)N/N=C(\CC1OC(=O)c2ccccc21)c1ccco1` (configuration not stated), the GI50 in [1], in assay [2], in assay [3], in assay [4], in assay [5] and in [8] was > 100 µM (inactive) throughout. Further, the GI50 in assay [9] is > 100 µM (inactive).
Take `O=C(c1nc2ccc([N+](=O)[O-])cc2nc1O)C(O)c1ccc2c(c1)OCO2` (configuration not stated): the GI50 in assay [1] was > 100 µM (inactive); in [2], > 100 µM (inactive); in assay [3], 71.8 µM (inactive); in assay [4] it was 29.5 µM (inactive); in assay [5], 47 µM (inactive); in [8] it was > 100 µM (inactive).
